Experiment: In vitro metabolite identification
Format: in vitro ADME
Settings: rat hepatocytes, 10 μM

COc1cc2ncnc(Nc3cccc(Cl)c3F)c2cc1OCCON1CCN(C)CC1 [Compound 9, N-(3-Chloro-2-fluorophenyl)-7-methoxy-6-(2-((4-methylpiperazin-1-yl)oxy)ethoxy)quinazolin-4-amine]
share of parent/metabolite after incubation of 9: 1.11%

Reference: PMC10683025, “Discovery of a Hydroxylamine-Based Brain-Penetrant EGFR Inhibitor for Metastatic Non-Small-Cell Lung Cancer” (Journal of Medicinal Chemistry, 2023)
